Measurements taken from PubChem BioAssay AID1963875 (Molecular Pharmacology Branch, DTP, NCI, 2024).

Test system: KRAS-mutant PDC complex spheroid viability
Assay: Anticancer human tumor 186277-243-T-J2-PDC patient-derived colon adenocarcinoma cell line growth inhibition [KRAS2]
Settings: for IC50: curve of first compound; for viability, T/C: stronger effect = lower value
Method in brief: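 Combination screen of spheroid viability in tumor-cell co-cultures with endothelial (HUVEC) and mesenchymal stem cell stroma. Each agent was tested in half-log dilutions, topping at clinical Cmax or at 10 microM without a known Cmax.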

[1] = second compound 0.1 µM, first compound 0.01 µM
[2] = second compound 0.1 µM, first compound 0.0316 µM
[3] = second compound 0.1 µM, first compound 0.1 µM
[4] = second compound 0.1 µM, first compound 0.316 µM
[5] = second compound 0.1 µM, first compound 1 µM
[6] = second compound 0.1 µM, first compound 3.16 µM
[7] = second compound 0.316 µM, first compound 0.01 µM
[8] = second compound 0.316 µM, first compound 0.0316 µM
[9] = second compound 0.316 µM, first compound 0.1 µM
[10] = second compound 0.316 µM, first compound 0.316 µM
[11] = second compound 0.316 µM, first compound 1 µM
[12] = second compound 0.316 µM, first compound 3.16 µM
[13] = second compound 1 µM, first compound 0.01 µM
[14] = second compound 1 µM, first compound 0.0316 µM
[15] = second compound 1 µM, first compound 0.1 µM
[16] = second compound 1 µM, first compound 0.316 µM
[17] = second compound 1 µM, first compound 1 µM
[18] = second compound 1 µM, first compound 3.16 µM
[19] = second compound 3.16 µM, first compound 0.01 µM
[20] = second compound 3.16 µM, first compound 0.0316 µM
[21] = second compound 3.16 µM, first compound 0.1 µM
[22] = second compound 3.16 µM, first compound 0.316 µM
[23] = second compound 3.16 µM, first compound 1 µM
[24] = second compound 3.16 µM, first compound 3.16 µM
[25] = second compound 10 µM, first compound 0.01 µM
[26] = second compound 10 µM, first compound 0.0316 µM
[27] = second compound 10 µM, first compound 0.1 µM
[28] = second compound 10 µM, first compound 0.316 µM
[29] = second compound 10 µM, first compound 1 µM
[30] = second compound 10 µM, first compound 3.16 µM
[31] = second compound 0.1 µM, first compound 10 µM
[32] = second compound 0.316 µM, first compound 10 µM
[33] = second compound 1 µM, first compound 10 µM
[34] = second compound 3.16 µM, first compound 10 µM
[35] = second compound 10 µM, first compound 10 µM
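Wherever viability, T/C is given: viability read after seven days of compound exposure; 100% = DMSO vehicle-treated spheroids so lower means less viable.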

Row | SMILES | IC50 (second compound 0.1 µM) [nM] | IC50 (second compound 0.316 µM) [nM] | IC50 (second compound 1 µM) [nM] | IC50 (second compound 3.16 µM) [nM] | IC50 (second compound 10 µM) [nM] | viability, T/C [2] [%] | viability, T/C [3] [%] | viability, T/C [4] [%] | viability, T/C [5] [%] | viability, T/C [6] [%] | viability, T/C [8] [%] | viability, T/C [9] [%] | viability, T/C [10] [%] | viability, T/C [11] [%] | viability, T/C [14] [%] | viability, T/C [15] [%] | viability, T/C [20] [%] | viability, T/C [21] [%] | viability, T/C [26] [%] | viability, T/C [27] [%] | also measured
1 | CC1COCCN1c1cc(-c2ccnn2C)c2ccnc(-c3ccn[nH]3)c2n1 (stereo not given) + CC1OCC2(CCN(c3cnc(Sc4ccnc(N)c4Cl)c(N)n3)CC2)C1N | 20.7 | 21.6 | 21.5 | 20.7 | 15.2 | 30.9 | 4.6 | 3.38 | 2.91 | 3.41 | 29.9 | 4.69 | 2.62 | 2.7 | 18.7 | 3.36 | 14.6 | 3.13 | 10.5 | 4.95 | viability, T/C [1]: 82.6%; viability, T/C [7]: 90.3%; viability, T/C [12]: 3.03%; viability, T/C [13]: 113%; viability, T/C [16]: 2.01%; viability, T/C [17]: 2.23%; viability, T/C [18]: 2.83%; viability, T/C [19]: 111%; viability, T/C [22]: 1.78%; viability, T/C [23]: 1.9%; viability, T/C [24]: 2.66%; viability, T/C [25]: 72.9%; viability, T/C [28]: 4.89%; viability, T/C [29]: 2.16%; viability, T/C [30]: 3.22%
2 | CCNC(=O)CC1N=C(c2ccc(Cl)cc2)c2cc(OC)ccc2-n2c(C)nnc21 (stereo not given) + CC1OCC2(CCN(c3cnc(Sc4ccnc(N)c4Cl)c(N)n3)CC2)C1N | 5830 | 1050 | 338 | 155 | 51 | 92.5 | 104 | 144 | 92.7 | 66 | 108 | 121 | 103 | 50.6 | 97.6 | 128 | 109 | 67.8 | 64.2 | 30 | viability, T/C [31]: 37%; viability, T/C [12]: 26.5%; viability, T/C [32]: 16.8%; viability, T/C [16]: 52.2%; viability, T/C [17]: 16.2%; viability, T/C [18]: 14%; viability, T/C [33]: 8.15%; viability, T/C [22]: 20.9%; viability, T/C [23]: 7.45%; viability, T/C [24]: 4.82%; viability, T/C [34]: 4.45%; viability, T/C [28]: 9.5%; viability, T/C [29]: 4.12%; viability, T/C [30]: 3.89%; viability, T/C [35]: 2.6%
3 | Cn1nccc1Nc1nccc(-c2cc3c(s2)C(C)(C)N(CCN2CCOCC2)C3=O)n1 + CC1OCC2(CCN(c3cnc(Sc4ccnc(N)c4Cl)c(N)n3)CC2)C1N | 306 | 219 | 224 | 176 | 77.4 | 106 | 107 | 48.3 | 9.06 | 4.04 | 104 | 114 | 22.5 | 7.68 | 106 | 114 | 118 | 85.6 | 86.8 | 39.5 | viability, T/C [31]: 5.66%; viability, T/C [12]: 2.95%; viability, T/C [32]: 4.77%; viability, T/C [16]: 24.3%; viability, T/C [17]: 4.22%; viability, T/C [18]: 2.3%; viability, T/C [33]: 3.66%; viability, T/C [22]: 13%; viability, T/C [23]: 2.81%; viability, T/C [24]: 1.49%; viability, T/C [34]: 2.19%; viability, T/C [28]: 5.87%; viability, T/C [29]: 2.69%; viability, T/C [30]: 1.11%; viability, T/C [35]: 1.69%
4 | CC(=O)OC12COC1CC(O)C1(C)C(=O)C(O)C3=C(C)C(OC(=O)C(O)C(NC(=O)OC(C)(C)C)c4ccccc4)CC(O)(C(OC(=O)c4ccccc4)C21)C3(C)C (stereo not given) + CNCc1ccccc1-c1csc(C(C)Nc2nc(C)nc3cc(OC)c(OC)cc23)c1 | < 10 | < 10 | < 10 | < 10 | < 10 | 2.89 | 2.72 | 2.61 | 2.94 | 3.13 | 2.44 | 2.68 | 2.5 | 2.71 | 3.7 | 3.39 | 0.05 | 0.02 | 0.1 | 0.08 | viability, T/C [1]: 4.85%; viability, T/C [7]: 4.19%; viability, T/C [12]: 3.02%; viability, T/C [13]: 4.69%; viability, T/C [16]: 3.25%; viability, T/C [17]: 3.43%; viability, T/C [18]: 3.79%; viability, T/C [19]: 6.31%; viability, T/C [22]: 0.03%; viability, T/C [23]: 0.05%; viability, T/C [24]: 3%; viability, T/C [25]: 0.13%; viability, T/C [28]: 0.33%; viability, T/C [29]: 3.35%; viability, T/C [30]: 0.58%
5 | CN(C)C/C=C/C(=O)Nc1cc2c(Nc3ccc(F)c(Cl)c3)ncnc2cc1O[C@H]1CCOC1 + CNCc1ccccc1-c1csc(C(C)Nc2nc(C)nc3cc(OC)c(OC)cc23)c1 | > 100 | > 100 | > 100 | 7.32 | < 0.316 | 127 | 108 | – | – | – | 109 | 96 | – | – | 119 | 95.9 | 16.4 | 5.67 | 0.13 | 0.33 | viability, T/C (second compound 0.1 µM, first compound 0.000316 µM): 100%; viability, T/C (second compound 0.1 µM, first compound 0.001 µM): 100%; viability, T/C (second compound 0.1 µM, first compound 0.00316 µM): 110%; viability, T/C [1]: 117%; viability, T/C (second compound 0.316 µM, first compound 0.000316 µM): 110%; viability, T/C (second compound 0.316 µM, first compound 0.001 µM): 96.2%; viability, T/C (second compound 0.316 µM, first compound 0.00316 µM): 113%; viability, T/C [7]: 119%; viability, T/C (second compound 1 µM, first compound 0.000316 µM): 108%; viability, T/C (second compound 1 µM, first compound 0.001 µM): 107%; viability, T/C (second compound 1 µM, first compound 0.00316 µM): 102%; viability, T/C [13]: 120%; viability, T/C (second compound 3.16 µM, first compound 0.000316 µM): 108%; viability, T/C (second compound 3.16 µM, first compound 0.001 µM): 103%; viability, T/C (second compound 3.16 µM, first compound 0.00316 µM): 109%; viability, T/C [19]: 29%; viability, T/C (second compound 10 µM, first compound 0.000316 µM): 0.21%; viability, T/C (second compound 10 µM, first compound 0.001 µM): 0.22%; viability, T/C (second compound 10 µM, first compound 0.00316 µM): 0.19%; viability, T/C [25]: 0.15%
6 | O=C(c1cc(Cc2n[nH]c(=O)c3ccccc23)ccc1F)N1CCN(C(=O)C2CC2)CC1 + CNCc1ccccc1-c1csc(C(C)Nc2nc(C)nc3cc(OC)c(OC)cc23)c1 | 6450 | 6160 | 5690 | 639 | < 31.6 | 110 | 101 | 95.6 | 114 | 78.6 | 107 | 102 | 111 | 106 | 104 | 97.2 | 94.8 | 107 | 0.19 | 0.21 | viability, T/C [31]: 32.4%; viability, T/C [12]: 73.8%; viability, T/C [32]: 32.7%; viability, T/C [16]: 108%; viability, T/C [17]: 104%; viability, T/C [18]: 66.9%; viability, T/C [33]: 33.8%; viability, T/C [22]: 94.1%; viability, T/C [23]: 16.2%; viability, T/C [24]: 45.6%; viability, T/C [34]: 3.95%; viability, T/C [28]: 0.19%; viability, T/C [29]: 0.14%; viability, T/C [30]: 0.14%; viability, T/C [35]: 0.19%
